# From patent US20110230431A1, “FOSFOMYCIN/TOBRAMYCIN COMBINATIONS FOR THE TREATMENT AND PREVENTION OF OPHTHALMIC, OTOLOGICAL AND DERMATOLOGICAL INFECTIONS” (Gilead Sciences, Inc., priority 2008, published 2011)
# Where two headings read alike, the source gives them in different places.
# Legend:
# E. coli [1] = format: cell-based, Escherichia coli
# Protocol: (§1) Development of resistance after a single exposure to antibiotic was determined for both clinical and reference isolates of P. aeruginosa, S. aureus, and E. coli. Late Log-phase cultures were centrifuged at 1,400×g at room temperature for 20 min and the cell pellets resuspended in CAMHB. […] The culture plates were incubated at 37° C. for 48 h and the number of colonies on each plate was enumerated manually. The spontaneous mutation frequency (SMF) resulting in antibiotic resistance was calculated by dividing the number of bacteria growing at the defined antibiotic concentration by the number of bacteria in the inoculum (Martinex, J L, Antimicrob Agents Chemother 2000; 44 (1):1771-1777).
# P. aeruginosa [2] = assay: MIC by agar plate dilution method (CLSI); format: cell-based, Pseudomonas aeruginosa; conditions: Pseudomonas aeruginosa, read-out: MIC
# From the text: (§2) P. aeruginosa strains isolated from patients with cystic fibrosis (CF) were obtained from Children's Hospital and Regional Medical Center (Seattle, Wash.). Clinical isolates of Escherichia coli and Staphylococcus aureus were obtained from The Jones Group Laboratories (JMI; North Liberty, Iowa) and The Clinical Microbiology Institute (CMI; Wilsonville, Oreg.). P. aeruginosa 27853, S. aureus 29213, and E. coli 25922 served as quality control strains^1 and were obtained from The America Type Culture Collection (ATCC; Manassas, Va.). P. aeruginosa ATCC 27853, a fosfomycin and tobramycin susceptible strain, was used in macromolecular biosynthesis and tobramycin uptake experiments. Stock cultures were maintained at −80° C. in Cation-Adjusted Mueller-Hinton Broth (CAMHB) (Remel; Lenexa, Kans.) supplemented with 20% glycerol (VWR: West Chester, Pa.). Cultures for routine use were grown on tryptic soy agar plates+5% sheeps blood (PML Microbiologicals Inc.; Wilsonville, Oreg.) and stored at 4° C.
# (§3) MICs were determined by the agar plate dilution method according to CLSI guidelines (National Committee for Clinical Laboratory Standards. M7-A6. 6th ed. Villanova (Pa.): NCCLS, 2003; M100-S14. Villanova (Pa.): NCCLS, 2004).
# P. aeruginosa ATCC 27853 = assay: Time-kill experiments in CAMHB with 2% mucin; format: cell-based, Pseudomonas aeruginosa
# Protocol: Time-kill experiments were performed according to a modified CLSI method (National Committee for Clinical Laboratory Standards. M-26A. Villanova (Pa.): NCCLS, 1999). […] Bacterial cultures and antibiotic(s) were incubated at 37° C. in a shaking water bath (200 rpm) and killing activity assessed at 0, 1, 2, 4, 6 and 24 h. Antibiotics that reduced the original inoculum by ≧3-Log10 were considered bactericidal. Antibiotics that reduced the original inoculum by ≦2-Log10 were considered bacteriostatic.
# E. coli [3] = assay: MIC by agar plate dilution method (CLSI); format: cell-based, Escherichia coli; conditions: Escherichia coli, read-out: MIC
# From the text: as §2, §3
# S. aureus = format: cell-based, Staphylococcus aureus
# Protocol: as §1
# P. aeruginosa [4] = format: cell-based, Pseudomonas aeruginosa
# Protocol: as §1
smiles,measurement,setting,value
"C[C@@H]1O[C@@H]1P(=O)(O)O [Fosfomycin, fosfomycin disodium]",Frequency of Resistance 4× MIC,"E. coli [1]; E. coli ATCC 25922, 4× MIC",1.9 × 10^−5
same,Frequency of Resistance 8× MIC,"E. coli [1]; E. coli ATCC 25922, 8× MIC",6.0 × 10^−6
same,Frequency of Resistance 16× MIC,"E. coli [1]; E. coli ATCC 25922, 16× MIC",2.5 × 10^−5
same,Frequency of Resistance 4× MIC,"E. coli [1]; E. coli C032, 4× MIC",4.4 × 10^−5
same,Frequency of Resistance 8× MIC,"E. coli [1]; E. coli C032, 8× MIC",7.8 × 10^−5
same,Frequency of Resistance 16× MIC,"E. coli [1]; E. coli C032, 16× MIC",2.1 × 10^−6
same,Frequency of Resistance 4× MIC,"E. coli [1]; E. coli C036, 4× MIC",1.1 × 10^−6
same,Frequency of Resistance 8× MIC,"E. coli [1]; E. coli C036, 8× MIC",2.3 × 10^−6
same,Frequency of Resistance 16× MIC,"E. coli [1]; E. coli C036, 16× MIC",3.4 × 10^−6
same,Frequency of Resistance 4× MIC,"E. coli [1]; E. coli C037, 4× MIC",1.9 × 10^−6
same,Frequency of Resistance 8× MIC,"E. coli [1]; E. coli C037, 8× MIC",2.9 × 10^−6
same,Frequency of Resistance 16× MIC,"E. coli [1]; E. coli C037, 16× MIC",8.6 × 10^−6
same,Frequency of Resistance 4× MIC,"E. coli [1]; E. coli C294, 4× MIC",7.9 × 10^−5
same,Frequency of Resistance 8× MIC,"E. coli [1]; E. coli C294, 8× MIC",5.4 × 10^−5
same,Frequency of Resistance 16× MIC,"E. coli [1]; E. coli C294, 16× MIC",6.3 × 10^−5
same,MIC,"P. aeruginosa [2]; ATCC27853, P. aeruginosa ATCC 27853",4 µg/mL
same,MIC,P. aeruginosa [2]; P. aeruginosa C002,4 µg/mL
same,MIC,P. aeruginosa [2]; P. aeruginosa C003,16 µg/mL
same,MIC,P. aeruginosa [2]; P. aeruginosa C013,32 µg/mL
same,MIC,P. aeruginosa [2]; P. aeruginosa C014,8 µg/mL
same,killing activity at 24 h,"P. aeruginosa ATCC 27853; 24 h, FT4:1 16 μg/mL, fosfomycin 12.8 μg/mL, tobramycin 3.2 μg/mL, mucin, FIG. 4",re-growth of the bacterial culture
same,killing activity,"P. aeruginosa ATCC 27853; FT4:1 at 4×MIC (16 μg/mL), component weights fosfomycin 12.8 μg/mL, tobramycin 3.2 μg/mL, mucin, FIG. 4",bacteriostatic killing
same,"killing activity (bactericidal ≧3-Log10, bacteriostatic ≦2-Log10)","P. aeruginosa ATCC 27853; multiples of the MIC, FIG. 1-3",bacteriostatic
same,MIC,"E. coli [3]; ATCC25922, E. coli ATCC 25922",2 µg/mL
same,MIC,E. coli [3]; E. coli C032,1 µg/mL
same,MIC,E. coli [3]; E. coli C036,2 µg/mL
same,MIC,E. coli [3]; E. coli C037,1 µg/mL
same,MIC,E. coli [3]; E. coli C294,0.5 µg/mL
same,Frequency of Resistance 4× MIC,"S. aureus; S. aureus ATCC 29213, 4× MIC",2.6 × 10^−8
same,Frequency of Resistance 8× MIC,"S. aureus; S. aureus ATCC 29213, 8× MIC",5.0 × 10^−8
same,Frequency of Resistance 16× MIC,"S. aureus; S. aureus ATCC 29213, 16× MIC",<1.8 × 10^−10
same,Frequency of Resistance 4× MIC,"S. aureus; S. aureus C051, 4× MIC",3.0 × 10^−5
same,Frequency of Resistance 8× MIC,"S. aureus; S. aureus C051, 8× MIC",3.6 × 10^−7
same,Frequency of Resistance 16× MIC,"S. aureus; S. aureus C051, 16× MIC",8.4 × 10^−6
same,Frequency of Resistance 4× MIC,"S. aureus; S. aureus C053, 4× MIC",7.7 × 10^−3
same,Frequency of Resistance 8× MIC,"S. aureus; S. aureus C053, 8× MIC",1.7 × 10^−7
same,Frequency of Resistance 16× MIC,"S. aureus; S. aureus C053, 16× MIC",4.3 × 10^−6
same,Frequency of Resistance 4× MIC,"S. aureus; S. aureus C055, 4× MIC",2.5 × 10^−6
same,Frequency of Resistance 8× MIC,"S. aureus; S. aureus C055, 8× MIC",<4.3 × 10^−9
same,Frequency of Resistance 16× MIC,"S. aureus; S. aureus C055, 16× MIC",8.2 × 10^−6
same,Frequency of Resistance 4× MIC,"S. aureus; S. aureus C057, 4× MIC",2.1 × 10^−5
same,Frequency of Resistance 8× MIC,"S. aureus; S. aureus C057, 8× MIC",1.1 × 10^−7
same,Frequency of Resistance 16× MIC,"S. aureus; S. aureus C057, 16× MIC",2.0 × 10^−7
same,Frequency of Resistance 4× MIC,"P. aeruginosa [4]; P. aeruginosa ATCC 27853, 4× MIC",7.2 × 10^−4
same,Frequency of Resistance 8× MIC,"P. aeruginosa [4]; P. aeruginosa ATCC 27853, 8× MIC",1.1 × 10^−5
same,Frequency of Resistance 16× MIC,"P. aeruginosa [4]; P. aeruginosa ATCC 27853, 16× MIC",7.2 × 10^−5
same,Frequency of Resistance 4× MIC,"P. aeruginosa [4]; P. aeruginosa C002, 4× MIC",6.5 × 10^−3
same,Frequency of Resistance 8× MIC,"P. aeruginosa [4]; P. aeruginosa C002, 8× MIC",1.1 × 10^−4
same,Frequency of Resistance 16× MIC,"P. aeruginosa [4]; P. aeruginosa C002, 16× MIC",4.6 × 10^−4
same,Frequency of Resistance 4× MIC,"P. aeruginosa [4]; P. aeruginosa C003, 4× MIC",1.1 × 10^−6
same,Frequency of Resistance 8× MIC,"P. aeruginosa [4]; P. aeruginosa C003, 8× MIC",9.0 × 10^−5
same,Frequency of Resistance 16× MIC,"P. aeruginosa [4]; P. aeruginosa C003, 16× MIC",1.3 × 10^−4
same,Frequency of Resistance 4× MIC,"P. aeruginosa [4]; P. aeruginosa C013, 4× MIC",9.2 × 10^−3
same,Frequency of Resistance 8× MIC,"P. aeruginosa [4]; P. aeruginosa C013, 8× MIC",1.3 × 10^−5
same,Frequency of Resistance 16× MIC,"P. aeruginosa [4]; P. aeruginosa C013, 16× MIC",1.3 × 10^−7
same,Frequency of Resistance 4× MIC,"P. aeruginosa [4]; P. aeruginosa C014, 4× MIC",1.4 × 10^−4
same,Frequency of Resistance 8× MIC,"P. aeruginosa [4]; P. aeruginosa C014, 8× MIC",1.3 × 10^−6
same,Frequency of Resistance 16× MIC,"P. aeruginosa [4]; P. aeruginosa C014, 16× MIC",1.8 × 10^−6
